The nature of this experiment: Inhibition of HIV1 NL4-3 protease assessed as decrease in viral replication in human MT2 cells after 4 days by luciferase reporter gene assay. A general note: Reporter assays use an easily measured gene product as a stand-in for the process of interest.

Each structure is given as a SMILES string.

One may read the EC50 as the midpoint of the concentration-response curve. Take `COC(=O)N[C@H](C(=O)NN(Cc1ccc(-c2ccccn2)cc1)C[C@H](OC(=O)[C@@H](NC(=O)OC)C(C)(C)C)[C@@H](N)Cc1ccccc1)C(C)(C)C`: the concentration giving a half-maximal response (EC50) was determined as 1.8 nM.

On to `COC(=O)N[C@H](C(=O)NN(Cc1ccc(-c2ccccn2)cc1)C[C@H](OC(=O)[C@@H](NC(=O)OC)C(C)(C)C)[C@H](Cc1ccccc1)NC(=O)OC(OC(=O)[C@@H](N)C(C)C)C(C)C)C(C)(C)C` (stereo partly drawn), for which the concentration for a half-maximal effect (EC50) turned out to be 5.3 nM.

In the case of `COC(=O)N[C@H](C(=O)N[C@@H](Cc1ccccc1)[C@@H](O)CN(Cc1ccc(-c2ccccn2)cc1)NC(=O)[C@@H](NC(=O)OC)C(C)(C)C)C(C)(C)C` [CGP 73547], the concentration giving a half-maximal response (EC50) was found to be 0.7 nM.
